# Tests used:
# recombinant αSyn fibrils [1] = target: T1, recombinant αSyn fibrils (Homo sapiens, UniProt P37840); assay: SPR binding kinetics on immobilized αSyn fibrils; settings: surface CMD200M, surface density 2940-3400 RU, sum2exp model, two components (lines) per analyte; for kon: read-out: ka, rate constant of association
# T1 construct: made in house; host or cells: E. coli
# Description: SPR measurements were conducted in HEPES-buffered saline (HBS, Teknova, USA) buffer at 20 °C using Biacore instruments T200 and S200 (Cytiva, Uppsala, Sweden). Aβ42, tau, and αSyn recombinant fibrils were immobilized in the flow cell of sensor chips produced by Xantec (Düsseldorf, Germany) and Cytiva by coupling fibril amine groups to sulfo-N-hydroxysuccinimide (sulfo-NHS)-activated carboxylic acid groups on the chip surface. Since no nonbinding fibril(s) were available, the reference flow cell remained empty. Different chip surfaces, including the carboxymethylated dextran surface CM5 (Cytiva, Sweden), the carboxymethyldextran hydrogel surface CMD200M, the linear polycarboxylate hydrogel surface HC30M and HC1500M, the linear polycarboxylate hydrogel (reduced charge) surface HLC30M, and the zwitterionic hydrogel surface ZC150D (all from Xantec, Germany), were tested to obtain a high immobilization density and low nonspecific adsorption of ligands. All steps for surface preparation and immobilization were conducted at a flow rate of 5 µL/min. The surface carboxylic acid groups were activated with 0.2 M sulfo-NHS and 0.1 M 1-ethyl-3-(3-dimethylaminopropyl)carbodiimide (EDC, Xantec) (CM5 and CMD200M: 0.05 M) in 5 mM 2-(N-morpholino)ethanesulfonic acid (MES buffer, abcr Swiss AG, Switzerland) at pH 5.0 for 550 s (CM5 and CMD200M: 180 s) using 5 mM MES (pH 6.5) as the running buffer. K18-tau and αSyn fibrils were diluted to 2.5–10 µM in 5 mM acetate buffer (Fisher Scientific, Switzerland) at pH 4.5 and coupled for 750 s at a flow rate of 5 µL/minute on all surfaces except for ZD150D. Surfaces were blocked with 1 M ethanolamine (Xantec, Germany) for 500 s. On the ZC150D chip, K18-tau, αSyn and Aβ42 were immobilized at 2.5–10 µM in 5 mM MES, pH 6.5, for 750 s to a surface activated with 0.5 M EDC and 0.1 M sulfo-NHS for 600 s in 5 mM MES, pH 6.5. Finally, the surface was blocked with 1 M glycine in 10 mM MES, pH 6.5.
# [2] = target: T2, pS129-positive αSyn inclusions (Homo sapiens, UniProt P37840); assay: Immunofluorescence staining and colocalization, PD patient brain slices; settings: for M1, fraction of A overlapping B / M2, fraction of B overlapping A: Manders' coefficient, sample PD, antibody (A) pS129, ligand (B); for Ligand detection of αSyn inclusions: medulla oblongata tissue slices from two PD patients, costained with pS129 antibody
# T2 construct: tissue Netherlands Brain Bank; host or cells: postmortem PD brain, medulla oblongata
# Text: Two PD patients, each with a clinical diagnosis confirmed by pathological examination of Lewy bodies (Braak LB 6, without tau and Aβ), were included in this study (detailed information in Table 1). Paraffin-embedded autopsied brain tissues from the medulla oblongata and cerebellum with high αSyn inclusion accumulation were obtained from the Netherlands Brain Bank (NBB), Netherlands (Table 2).
# The details on the antibodies and ligand concentrations are described in STable 1. 2. Human paraffin-embedded brain sections (3 µm) were deparaffinized and rehydrated prior to antigen retrieval step (citrate buffer pH 6.0) in a microwave for 20 min at 98 °C. The sections were then costained with anti-αSyn (phospho-S129, pS129) antibody plus fluorescent secondary antibody. Ligands were incubated after secondary antibody incubation for 30 min. Sections were counterstained using 4’,6-diamidino-2-phenylindole (DAPI). Mouse brains were embedded in tissue freezing media (OCT Compound, Tissue Tek, USA) and cut into 30–40 μm thick consecutive coronal sections using a cryostat microtome (CM3050 S, Leica, Germany). All sections spanning the complete rostrocaudal extent of the brain were kept in the correct order and stored at 4 °C in cryoprotect solution (1:1:3 volume ratio of ethylenglycol, glycerol and 0.1 M PBS) until further processing. Anti-αSyn pS129 antibodies, anti-phospho-tau antibodies (AT-8, AT-100), or anti-Aβ1-16 antibody 6E10 plus fluorescent secondary antibody were used as previously described on brain slices from αSyn PFF-injected mice, arcAβ mice, and pR5 mice. Ligands were incubated with secondary antibody for 30 min. Sections were counterstained with DAPI. The brain sections were imaged at 20 × magnification using an Axio Observer Z1 microscope (whole brain slide scanner) and at 63 × magnification using a Leica SP8 confocal microscope (Leica, Germany) for colocalization. It took approximately 1–1.5 h to acquire the tilted human brain slices by a slide scanner in our experiment (20 ×). The time varied depending on the size of the sample. Lambda scans were performed using a Leica SP8 confocal microscope for the emission spectrum of the ligands on the staining as previously described to validate the signal. The images were analyzed using Qupath and Fiji (NIH, U.S.A.). Colocalization analysis of the confocal microscopy images (probe and antibody channels) was performed by using Fiji, and Manders' coefficients (M1, M2) were computed.
# [3] = target: T3, tau inclusions (AT-8/AT-100 positive) (Homo sapiens, UniProt P10636, P618L); assay: Immunofluorescence staining and colocalization, pR5 mouse brain; settings: for M1, fraction of A overlapping B / M2, fraction of B overlapping A: Manders' coefficient, pR5 mouse
# T3 construct: from tissue; host or cells: brain (cortex, hippocampus) of pR5 transgenic mice
# recombinant Aβ42 fibrils [4] = target: T4, recombinant Aβ42 fibrils (Homo sapiens, UniProt P05067); parameters: method as in PMID 27767229; settings: read-out: EC50, competition with [^3H]X-34; cited from earlier work
# T4 construct: Recombinant Aβ42, K18-tau, full-length 2N4R tau (441 aa) and αSyn were expressed; made in house; host or cells: E. coli
# [5] = target: T5, recombinant full-length 2N4R tau fibrils (Homo sapiens, UniProt P10636); assay: SPR binding kinetics on immobilized full-length 2N4R tau fibrils; settings: surface ZC150D, surface density 2900 RU, sum2exp model, two components per analyte
# T5 construct: full-length 2N4R tau (441 aa); made in house; host or cells: E. coli
# Description: [The source words this procedure for another variant and reports this variant under the same test.] (§1) SPR measurements were conducted in HEPES-buffered saline (HBS, Teknova, USA) buffer at 20 °C using Biacore instruments T200 and S200 (Cytiva, Uppsala, Sweden). Aβ42, tau, and αSyn recombinant fibrils were immobilized in the flow cell of sensor chips produced by Xantec (Düsseldorf, Germany) and Cytiva by coupling fibril amine groups to sulfo-N-hydroxysuccinimide (sulfo-NHS)-activated carboxylic acid groups on the chip surface. Since no nonbinding fibril(s) were available, the reference flow cell remained empty. […]
# (§2) The immobilized fibrils were stable for a few days. Kinetic constants for binding were determined by injection of a dilution series of 5–8 concentrations of ligand in HBS buffer at a flow rate of 30 µL/minute in duplicate ("full kinetics").
# (§3) The data was evaluated using BiaEvaluate v2.03 software (Cytiva, Sweden). Binding kinetics were analyzed globally using different kinetic models, including 1 + 1, a sum of two exponentials model ("heterogeneous ligand" in terms of BiaEvaluate, sum2exp), and a sum of three exponentials model (sum3exp) that was created using the script editor of the software.
# recombinant Aβ42 fibrils [6] = target: T4, recombinant Aβ42 fibrils; assay: SPR binding kinetics on immobilized Aβ42 fibrils; settings: surface ZC150D, surface density 1770 RU, sum2exp model, two components per analyte
# Description: as §1, §2, §3
# recombinant Aβ42 fibrils [7] = target: T4, recombinant Aβ42 fibrils; assay: Fluorescence assay of ligands with Aβ42 fibrils; format: binding; settings: ligand bound to Aβ42 fibrils; emission peaks
# Text: (§4) Recombinant Aβ42, K18-tau, full-length 2N4R tau (441 aa) and αSyn were expressed and measured for binding with fluorescent ligands as described previously (details in the supplementary material).
# (§5) Recombinant Aβ42, K18 tau, full-length 2N4R tau (441 aa) and αSyn were expressed and produced by E. coli as described previously. As a substrate for HRP, Pierce ECL and Western blotting substrate (Thermo Fisher Scientific, U.S.A.) were used to detect Aβ42 and αSyn. To detect K18 tau, ECL Prime Western blotting detection reagents (Cytiva, U.S.A.) were used. Images of the resulting blots were taken with an ImageQuant LAS 4000 (GE Healthcare). […] For Aβ42, the quantity was 3.7 μg because of a higher dilution. […] K18 tau was detected using a monoclonal tau antibody (anti-tau 4-repeat isoform RD4, clone 1E1/A6). Aβ42 was detected with a monoclonal Aβ antibody (clone BAM-10), and αSyn was detected using a monoclonal αSyn antibody (clone Syn211). […] After incubation of the protein solutions, fibrillization was verified by thioflavin T fluorescence assay: 45 μL of thioflavin T (5 μM, Sigma Aldrich, U.S.A.) was mixed with either 2 μL of the incubated αSyn, 5 μL of K18 tau, full-length 2N4R tau or 5 μL of Aβ42 in a 45 µL quartz cuvette (quartz […] Ultra-Micro Cell, Hellma GmbH, Germany).
# recombinant αSyn fibrils [8] = target: T1, recombinant αSyn fibrils; assay: Fluorescence assay of ligands with αSYN fibrils; format: binding; settings: ligand bound to αSYN fibrils; emission peaks
# Text: as §4, §5
# [9] = target: recombinant K18 tau fibrils (Homo sapiens, UniProt P10636); assay: Fluorescence assay of ligands with K18 tau fibrils; format: binding; parameters: made in house; host or cells: E. coli; settings: ligand bound to K18 tau fibrils; emission peaks
# Text: as §4, §5
# [10] = target: T6, pS129-positive αSyn inclusions (Mus musculus, UniProt O55042); assay: Immunofluorescence staining and colocalization, αSyn PFF-injected mouse brain; settings: for M1, fraction of A overlapping B / M2, fraction of B overlapping A: Manders' coefficient, αSyn PFF injected mouse, antibody (A) pS129, ligand (B); for Colocalization of ligand with pS129 signal: αSyn-PFF-injected mice, 12 weeks after injection, PPN, periaqueductal gray, SNc, nucleus accumbens
# T6 construct: from tissue; host or cells: brain of αSyn PFF-injected C57BL/6J mice
# [11] = antibody (A) AT-100, ligand (B)
# T4 sequence (P05067 672-713 limits assumed): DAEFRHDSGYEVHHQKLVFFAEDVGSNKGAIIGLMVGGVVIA
# T3 sequence (P10636 1-441 isoform P10636-8 P301L): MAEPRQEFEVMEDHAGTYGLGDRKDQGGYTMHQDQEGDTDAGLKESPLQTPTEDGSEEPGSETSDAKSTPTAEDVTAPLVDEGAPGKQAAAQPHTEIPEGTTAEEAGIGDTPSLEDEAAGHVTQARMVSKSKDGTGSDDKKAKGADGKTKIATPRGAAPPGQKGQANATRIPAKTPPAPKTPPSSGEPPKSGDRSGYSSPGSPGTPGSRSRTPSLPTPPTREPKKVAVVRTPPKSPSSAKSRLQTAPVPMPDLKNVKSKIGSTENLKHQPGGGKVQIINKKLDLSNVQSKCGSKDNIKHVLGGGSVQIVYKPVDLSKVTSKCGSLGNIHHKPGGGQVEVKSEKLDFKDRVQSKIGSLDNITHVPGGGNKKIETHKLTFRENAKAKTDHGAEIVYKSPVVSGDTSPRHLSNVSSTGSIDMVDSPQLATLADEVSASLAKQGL
# Sequence of recombinant K18 tau fibrils (P10636 561-685 limits assumed): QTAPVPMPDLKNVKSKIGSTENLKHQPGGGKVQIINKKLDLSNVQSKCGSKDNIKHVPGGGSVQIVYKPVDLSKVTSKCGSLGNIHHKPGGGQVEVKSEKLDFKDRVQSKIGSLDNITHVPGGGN
# T5 sequence (P10636 1-441 isoform P10636-8): as the sequence (P10636 1-441 isoform P10636-8 P301L) above, with L301P counted along it
SMILES,"ka, rate constant of association (recombinant αSyn fibrils [1])",kon (recombinant αSyn fibrils [1]),"M1, fraction of A overlapping B [2]","M2, fraction of B overlapping A [2]",Ligand detection of αSyn inclusions [2],"M1, fraction of A overlapping B ([3]; antibody (A) AT-8, ligand (B))","M2, fraction of B overlapping A ([3]; antibody (A) AT-8, ligand (B))","M1, fraction of A overlapping B [3, 11]","M2, fraction of B overlapping A [3, 11]",Emission wavelength (recombinant Aβ42 fibrils [7]),Emission wavelength (recombinant αSyn fibrils [8]),Emission wavelength [9],"M1, fraction of A overlapping B [10]","M2, fraction of B overlapping A [10]",Colocalization of ligand with pS129 signal [10],EC50 (recombinant Aβ42 fibrils [4]),"ka, rate constant of association [5]","ka, rate constant of association (recombinant Aβ42 fibrils [6])","Ligand detection of tau inclusions ([3]; pR5 mice, cortex and hippocampus, costained with AT-8)"
"Cc1c(OCC(F)(F)F)ccnc1C[S+]([O-])c1nc2ccccc2[nH]1 (stereo not drawn) [Lan, lansoprazole]",–,–,–,–,–,–,–,–,–,–,–,–,–,–,–,–,lower than 10^3 M^−1 s^−1,lower than 10^3 M^−1 s^−1,–
O=C(O)Cc1cc(-c2ccc(-c3cc(CC(=O)O)c(-c4ccc(C(=O)O)s4)s3)c3nsnc23)sc1-c1ccc(C(=O)O)s1 [HS-169],1.45E + 05 M^−1 s^−1,288000 M⁻¹ s⁻¹,0.81,0.866,bound to pS129-positive αSyn inclusions,0.164,0.279,–,–,650 nm,643 nm,640 nm,0.673,0.84,Colocalization,–,–,–,–

# Second part, led by results:
"ka, rate constant of association (recombinant αSyn fibrils [1])",kon (recombinant αSyn fibrils [1]),"M1, fraction of A overlapping B [2]","M2, fraction of B overlapping A [2]",Ligand detection of αSyn inclusions [2],"M1, fraction of A overlapping B ([3]; antibody (A) AT-8, ligand (B))","M2, fraction of B overlapping A ([3]; antibody (A) AT-8, ligand (B))","M1, fraction of A overlapping B [3, 11]","M2, fraction of B overlapping A [3, 11]",Emission wavelength (recombinant Aβ42 fibrils [7]),Emission wavelength (recombinant αSyn fibrils [8]),Emission wavelength [9],"M1, fraction of A overlapping B [10]","M2, fraction of B overlapping A [10]",Colocalization of ligand with pS129 signal [10],SMILES,EC50 (recombinant Aβ42 fibrils [4]),"ka, rate constant of association [5]","ka, rate constant of association (recombinant Aβ42 fibrils [6])","Ligand detection of tau inclusions ([3]; pR5 mice, cortex and hippocampus, costained with AT-8)"
111000 M⁻¹ s⁻¹,162000 M⁻¹ s⁻¹,0.404,0.4,bound to pS129-positive αSyn inclusions,0.215,0.07,0.459,0.16,–,–,–,–,–,–,"O=C(O)Cc1cc(-c2ccc(-c3ccc(C(=O)O)s3)s2)sc1-c1ccc(-c2sc(-c3ccc(-c4ccc(C(=O)O)s4)s3)cc2CC(=O)O)s1 [h-FTAA, Hepta-formylthiophene acetic acid]",~250 nM,–,–,–
–,–,–,–,–,0.39,0.09,0.024,0.018,695 nm,690 nm,688 nm,–,–,–,CC[n+]1c(/C=C/C=C/c2ccc(N(C)C)cc2)sc2ccccc21 [PBB5],–,–,–,confirmed the presence of PBB5 in tau inclusions
–,–,–,–,–,–,–,–,–,–,–,–,0.839,0.838,Colocalization,O=C(O)Cc1cc(-c2ccc(-c3cc(CC(=O)O)c(-c4ccc(C(=O)O)s4)s3)s2)sc1-c1ccc(C(=O)O)s1 [HS-84],–,–,–,–
